# Marks after values point to notes of the source that are not given here.
# How the values were obtained:
# [1] = tested on: human submandibular gland epithelial cell line (HSG); experiment: RTCA cell proliferation after single X-ray irradiation with drugs; format: cell-based; details: Table 5 and FIG. 7
# Text: 2) The proliferation plate were taken out, and the medium was refreshed. […] The cells were subjected to single X-ray (RAD SOURCE 2000) irradiation at a dose of 1.22 gy/min and a total dose of 2 gy.
# 3) After irradiation, detection was continuously carried out.
# [2] = Nitrate content in the blood of mice after single gastric gavage; format: in vivo; details: ICR mice, 2 mmol/kg sodium nitrate single gastric gavage
# Description: A total of 40 ICR mice (male, 20±4 g) were randomly divided into 4 groups of 10 mice each. […] Blood was collected from vena caudalis at 0 h, and 2, 4, 6, 12, and 24 h after gastric gavage, respectively.
# [3] = tested on: submandibular gland acinar cells; experiment: Vacuole area in submandibular gland acinar cells (HE staining); format: in vivo; details: SD rats, high dose 40.5 mM, 8 weeks after radiotherapy
# Text: At 8 weeks after radiotherapy, the micrographs (×40) of the HE stained submandibular gland tissues of the rats in each experimental group were shown in FIG. 9A on the right of the panel of FIG. 9. See FIG. 9B on the left of the panel of FIG. 9.
# [4] = tested on: AQP5; experiment: AQP5 expression level in submandibular gland acinar cells (immunofluorescence); format: in vivo; details: SD rats, 8 weeks after radiotherapy
# Text: The immunofluorescence staining photographs (×20 under microscope) of the paraffin sections of the submandibular gland of the rats in each experimental group at 8 weeks after radiotherapy, and the quantitation results of the expression levels of AQP5 in the submandibular gland acinar cells in each group were shown in FIG. 10 and Table 8.
# [5] = Nitrate content in saliva of rats after radiotherapy; format: in vivo; details: SD rats, 4 and 8 weeks after radiotherapy
# [6] = tested on: rat salivary gland; experiment: Salivary flow rate of rats before and after radiotherapy; details: SD rats
# [7] = Serum biochemical detection at 8 weeks after radiotherapy; details: SD rats, 8 weeks after submandibular gland irradiation
# [8] = tested on: human submandibular gland epithelial cell line (HSG); experiment: RTCA cell proliferation after addition of drugs (no irradiation); details: microcapsules 0.25 mM, nitrate 0.5 mM
# [9] = HE staining of sections of major organs (heart, liver, spleen, lung, kidney); details: SD rats
# [10] = high dose 40.5 mM in drinking water
# [11] = low dose 20.25 mM in drinking water
smiles,measurement,setting,value
"O=C1O[C@H]([C@@H](O)CO)C(O)=C1O [Vc, vitamin C]",effect on proliferation of submandibular gland epithelial cells after single irradiation,[1],promote the proliferation
"O=[N+]([O-])[O-].[Na+] [Sodium nitrate, sodium nitrate]",Nitrate content in the blood,[2]; 0 h,41.8 µmol/L
same,Nitrate content in the blood,[2]; 2 h,1052.8 µmol/L
same,Nitrate content in the blood,[2]; 4 h,572.4 µmol/L
same,Nitrate content in the blood,[2]; 6 h,297.4 µmol/L
same,Nitrate content in the blood,[2]; 12 h,45.3 µmol/L
same,Nitrate content in the blood,[2]; 24 h,32.7 µmol/L
same,effect on proliferation of submandibular gland epithelial cells after single irradiation,[1],promote the proliferation
same,vacuole area in submandibular gland acinar cells as compared with IR group,[3],significantly decreased
same,expression level of AQP5 versus IR group,[4]; high dose 40.5 mM,significantly different
same,expression level of AQP5 versus IR group,[4]; low dose 20.25 mM,significantly different
same,"nitrate content in saliva, course after administration",[5],relatively stable
same,salivary flow rate,"[6]; high dose 40.5 mM in drinking water, 1 W after radiotherapy",0.48 ± 0.25 ml/20 min
same,salivary flow rate,"[6]; high dose 40.5 mM in drinking water, 2 W after radiotherapy",1.12 ± 0.20^a ml/20 min
same,salivary flow rate,"[6]; high dose 40.5 mM in drinking water, 4 W after radiotherapy",0.91 ± 0.17^a ml/20 min
same,salivary flow rate,"[6]; high dose 40.5 mM in drinking water, 6 W after radiotherapy",0.80 ± 0.09^a ml/20 min
same,salivary flow rate,"[6]; high dose 40.5 mM in drinking water, 8 W after radiotherapy",0.81 ± 0.13 ml/20 min
same,salivary flow rate,"[6]; high dose 40.5 mM in drinking water, first column 1 W (1 week before radiotherapy)",1.37 ± 0.24 ml/20 min
same,salivary flow rate,"[6]; low dose 20.25 mM in drinking water, 1 W after radiotherapy",0.60 ± 0.25 ml/20 min
same,salivary flow rate,"[6]; low dose 20.25 mM in drinking water, 2 W after radiotherapy",0.95 ± 0.01^a ml/20 min
same,salivary flow rate,"[6]; low dose 20.25 mM in drinking water, 4 W after radiotherapy",0.82 ± 0.21^a ml/20 min
same,salivary flow rate,"[6]; low dose 20.25 mM in drinking water, 6 W after radiotherapy",0.74 ± 0.12 ml/20 min
same,salivary flow rate,"[6]; low dose 20.25 mM in drinking water, 8 W after radiotherapy",0.76 ± 0.09 ml/20 min
same,salivary flow rate,"[6]; low dose 20.25 mM in drinking water, first column 1 W (1 week before radiotherapy)",1.34 ± 0.26 ml/20 min
same,ALP,[7]; [10],112.00 ± 19.69 U/L
same,ALT,[7]; [10],49.20 ± 10.30 U/L
same,AST,[7]; [10],116.20 ± 9.44 U/L
same,Alb,[7]; [10],8.66 ± 0.87 g/L
same,Ca,[7]; [10],2.41 ± 0.14 mmol/L
same,Cr,[7]; [10],46.7 ± 14.59 µmol/L
same,D-Bil,[7]; [10],1.8 ± 1.21 µmol/L
same,GGT,[7]; [10],5.00 ± 0.71 U/L
same,Glb,[7]; [10],45.42 ± 3.88 g/L
same,HDL-C,[7]; [10],2.09 ± 0.43 mmol/L
same,I-Bil,[7]; [10],1.73 ± 1.57 µmol/L
same,K,[7]; [10],5.10 ± 0.45 mmol/L
same,LDH,[7]; [10],747.40 ± 165.67 U/L
same,LDL-C,[7]; [10],0.24 ± 0.06 mmol/L
same,Na,[7]; [10],141.66 ± 1.62 mmol/L
same,P,[7]; [10],2.77 ± 1.01 mmol/L
same,T-Bil,[7]; [10],3.52 ± 2.00 µmol/L
same,TC,[7]; [10],1.87 ± 0.38 mmol/L
same,TCO2,[7]; [10],30.12 ± 3.07 mmol/L
same,TG,[7]; [10],0.31 ± 0.38 mmol/L
same,TP,[7]; [10],54.08 ± 4.11 g/L
same,Urea,[7]; [10],5.78 ± 1.21 mmol/L
same,ALP,[7]; [11],95.00 ± 52.85 U/L
same,ALT,[7]; [11],46.60 ± 16.80 U/L
same,AST,[7]; [11],123.80 ± 38.49 U/L
same,Alb,[7]; [11],8.20 ± 1.32 g/L
same,Ca,[7]; [11],2.39 ± 0.09 mmol/L
same,Cr,[7]; [11],47.82 ± 12.95 µmol/L
same,D-Bil,[7]; [11],1.43 ± 0.40 µmol/L
same,GGT,[7]; [11],5.60 ± 0.89 U/L
same,Glb,[7]; [11],44.68 ± 1.80 g/L
same,HDL-C,[7]; [11],2.13 ± 0.71 mmol/L
same,I-Bil,[7]; [11],1.43 ± 1.07 µmol/L
same,K,[7]; [11],5.31 ± 0.48 mmol/L
same,LDH,[7]; [11],1212.44 ± 728.19 U/L
same,LDL-C,[7]; [11],0.27 ± 0.06 mmol/L
same,Na,[7]; [11],140.72 ± 1.47 mmol/L
same,P,[7]; [11],2.37 ± 0.22 mmol/L
same,T-Bil,[7]; [11],2.52 ± 1.37 µmol/L
same,TC,[7]; [11],2.05 ± 0.71 mmol/L
same,TCO2,[7]; [11],30.26 ± 2.68 mmol/L
same,TG,[7]; [11],0.57 ± 0.42 mmol/L
same,TP,[7]; [11],52.88 ± 2.40 g/L
same,effect on proliferation of submandibular gland epithelial cells under normal conditions,[8],promote the proliferation
same,effect on the organs in the body of the rats,[9]; continuous administration of 40.5 mM for 9 weeks,no significant effect
same,"abnormality in the major organs, HE stained sections","[9]; high dose 40.5 mM, 8 weeks after radiotherapy, FIG. 12",no abnormality

# — patent US20250228785A1, “MICROCAPSULE, PREPARATION METHOD THEREFOR, AND USE THEREOF IN PREVENTING AND/OR TREATING DAMAGE TO SALIVARY GLANDS CAUSED BY RADIATION THERAPY” (CAPITAL MEDICAL UNIVERSITY, priority 2021, published 2025)
